In patent US9839614B2, “Nanoparticle and polymer formulations for thyroid hormone analogs, antagonists, and formulations and uses thereof” (NANOPHARMACEUTICALS LLC, priority 2009, dated 2017):
Values joined by “and” are separate entries in the source; they are usually repeats but may differ in a detail not shown here. Equal values may be shown once.

Assays:
[1] = tested on: chick chorioallantoic membrane (CAM) blood vessel branching; test: Chorioallantoic membrane (CAM) model of angiogenesis; type: in vivo; settings: for ANGIOGENESIS INDEX: n = 8 per group; for effect on angiogenesis, representative illustrations (FIG. 23): in vivo
Method: In vivo neovascularization was examined by methods described previously. 9-12 Ten-day-old chick embryos were purchased from SPAFAS (Preston, Conn.) and incubated at 37° C. with 55% relative humidity. A hypodermic needle was used to make a small hole in the shell concealing the air sac, and a second hole was made on the broad side of the egg, directly over an avascular portion of the embryonic membrane that was identified by candling. A false air sac was created beneath the second hole by the application of negative pressure at the first hole, causing the CAM to separate from the shell. A window approximately 1.0 cm^2 was cut in the shell over the dropped CAM with a small-crafts grinding wheel (Dremel, division of Emerson Electric Co.), allowing direct access to the underlying CAM. […] Sterile disks of No. 1 filter paper (Whatman International) were pretreated with 3 mg/mL cortisone acetate and 1 mmol/L PTU and air dried under sterile conditions. Thyroid hormone, hormone analogs, FGF2 or control solvents, and inhibitors were then applied to the disks and the disks allowed to dry. The disks were then suspended in PBS and placed on growing CAMs. […] At 24 hours, the MAPK cascade inhibitor PD 98059 was also added to CAMs topically by means of the filter disks.
After incubation at 37° C. with 55% relative humidity for 3 days, the CAM tissue directly beneath each filter disk was resected from control and treated CAM samples. Tissues were washed 3× with PBS, placed in 35-mm Petri dishes (Nalge Nunc), and examined under an SV6 stereomicroscope (Zeiss) at X50 magnification. Digital images of CAM sections exposed to filters were collected using a 3-charge-coupled device color video camera system (Toshiba) and analyzed with Image-Pro software (Media Cybernetics). The number of vessel branch points contained in a circular region equal to the area of each filter disk were counted. One image was counted in each CAM preparation, and findings from 8 to 10 CAM preparations were analyzed for each treatment condition (thyroid hormone or analogs, FGF2, FGF2 antibody, PD 98059). In addition, each experiment was performed 3 times. The resulting angiogenesis index is the mean±SEM of new branch points.

[2] = tested on: matrigel plug angiogenesis; test: Mouse matrigel model of angiogenesis (plug hemoglobin); type: in vivo, mice (C57BL/6NCr)
Method: Normal male mice (C57BL/6NCr) 6-8 weeks of age and weighing ˜20 g were purchased from Taconic farm. Animals were housed 4 per cage, in controlled conditions of temperature (20-24° C.); humidity (60-70%) and 12 hrs. light/dark cycle provided with food and water ad libitum. […] Aliquots of matrigel were placed into cold polypropylene tubes to prevent the matrigel from solidifying and the angiogenesis promoter added to matrigel with or without agonist. Mice were treated daily. Matrigel was subcutaneously injected as triple injection per animal at 100 μL/animal. At day 14 post plug implant all animals were killed in CO2 chamber and matrigel plugs were collected. Plug hemoglobin content was analyzed from three implants/mice (n=6 per group) to measure angiogenesis.
The matrigel plugs dissected from the mice were carefully stripped of any remaining peritoneum. The plugs were placed into 0.5 mL tube of ddH2O and homogenized for 5-10 min. […] Absorbance was read with a Microplate Manager ELISA reader at 540 nm. […] Hemoglobin concentration is a reflection of the number of blood vessels in the plugs.

[3] = tested on: ECV304 endothelial cells; test: FGF2 release from ECV304 endothelial cells (ELISA); type: cell-based; settings: T3 0.01 μmol/L, 3 days
Method: ECV304 endothelial cells were cultured in M199 medium supplemented with 10% fetal bovine serum. […] After 72 hours, the supernatants were harvested and assays for FGF performed without dilution using a commercial ELISA system (R&D Systems) (See Davis et al., Circ Res 94:1500-1506 (2004)).

[4] = FGF 100 ng + Tetrac or analog 10 μg/plug
[5] = FGF 100 ng + Tetrac or analog 10 μg/plug, n = 7-14
[6] = T4 + antagonist, each 10 μg/matrigel plug
[7] = FGF (1.25 μg/ml) + Tetrac or analog at 10 μg/plug
[8] = FGF (1.25 μg/ml) + Tetrac or analog at 10 μg/plug, n = 8
[9] = 10 μg/matrigel plug, day 14, n = 6-7

CC(C)[Si](OC(=O)Cc1cc(I)c(Oc2cc(I)c(OCC3CO3)c(I)c2)c(I)c1)(C(C)C)C(C)C (centres unmarked)
melting point: 120 °C

Cc1cc(OCC(=O)O)cc(C)c1Cc1ccc(O)c(C(C)C)c1 [GC-1, 3,5-dimethyl-4-(4′-hydroxy-3′-isopropylbenzyl)-phenoxy acetic acid]
ANGIOGENESIS INDEX ([1]; 0.01 uM): 169.6 ± 11.6 | ANGIOGENESIS INDEX ([1]; 0.1 uM): 152.7 ± 9.0

O=C(O)C(Cc1cc(I)c(Oc2cc(I)c(O)c(I)c2)c(I)c1)NC(c1ccccc1)(c1ccccc1)c1ccccc1 (centres unmarked) [PRIAB2]
Branch pts ± SEM ([1]; 0.1 μM): 136.0 ± 18.1

CC(C)[Si](OC(=O)C(Cc1cc(I)c(Oc2cc(I)c(OCC3CO3)c(I)c2)c(I)c1)NC(=O)OC(C)(C)C)(C(C)C)C(C)C (centres unmarked) (hydrate or solvate)
melting point: 109 °C

O=C(Cc1cc(I)c(Oc2cc(I)c(OCC3CO3)c(I)c2)c(I)c1)NC1CCCCC1 (centres unmarked) [Tetrac analog 6, N-cyclohexyl-2-(4-(3,5-diiodo-4-(oxiran-2-ylmethoxy)phenoxy)-3,5-diiodophenyl)acetamide]
Mean inhibition of angiogenesis (%) [2, 4]: 80 ± 16% | Hemoglobin (mg/mL) ± SEM [2, 5]: 0.7 ± 0.1 mg/mL | melting point: 242 °C

CNC(Cc1cc(I)c(Oc2cc(I)c(O)c(I)c2)c(I)c1)C(=O)O (centres unmarked) [PRIAB6]
Branch pts ± SEM ([1]; 0.1 μM): 136.2 ± 12.4

CCNC(Cc1cc(I)c(Oc2cc(I)c(O)c(I)c2)c(I)c1)C(=O)OCC (centres unmarked) [T4 analog 12, Ethyl-2-(ethylamino)-3-[4-(4-hydroxy-3,5-diiodophenoxy)-3,5-diiodophenyl]propanoate]
Mean Branch points ([1]; FGF (1.25 μg/ml) + 12 (0.1 μM)): 46 ± 2 | Mean % of stimulation (comparing to PBS) ([1]; FGF (1.25 μg/ml) + 12 (0.1 μM), (inhibition)): −37.9 ± 4 (inhibition) % | effect on angiogenesis, representative illustrations (FIG. 23) [1]: anti-angiogenic | Hemoglobin (mg/mL) ± SEM [2, 6]: 0.4 ± 0.1 mg/mL | Mean inhibition of angiogenesis (%) [2, 6]: 89 ± 11%

CC(C)(C)OC(=O)Cc1cc(I)c(Oc2cc(I)c(O)c(I)c2)c(I)c1 [Tetrac analog 3, tert-Butyl-2-(4-(4-hydroxy-3,5-diiodophenoxy)-3,5-diiodophenyl)acetate]
Mean inhibition of angiogenesis (%) [2, 4]: 95 ± 14%

CC(C)[Si](OC(=O)C(Cc1cc(I)c(Oc2cc(I)c(O)c(I)c2)c(I)c1)NC(=O)OC(C)(C)C)(C(C)C)C(C)C (centres unmarked) [T4 analog 13, Triisopropylsilyl-2-(tert-butoxycarbonylamino)-3-(4-(4-hydroxy-3,5-diiodophenoxy)-3,5-diiodophenyl)propanoate]
Mean Branch points ([1]; 1 μM, mean ± SEM, n = 8): 76 ± 7 | Mean % Inhibition [1, 7]: 44 ± 13% | Mean Branch points [1, 8]: 105 ± 7 | change in vivo at 1 µM ([1]; Gallus gallus, topical, 1 μM, read-out: Mean % of stimulation (comparing to PBS)): 4.1 ± 6.5% | Mean stimulation of angiogenesis (%) ([2]; 10 μg/matrigel plug): 0 ± 17% | Hemoglobin (mg/mL) ± SEM [2, 9]: 0.3 ± 0.1 mg/mL

O=C(Cc1cc(I)c(Oc2cc(I)c(OCCCl)c(I)c2)c(I)c1)NC1CCCCC1 [Tetrac analog 15, 2-(4-(4-(2-chloroethoxy)-3,5-diiodophenoxy)-3,5-diiodophenyl)-N-cyclohexylacetamide]
melting point: 263 °C

CC(C)(C)OC(=O)NC(Cc1cc(I)c(Oc2cc(I)c(O)c(I)c2)c(I)c1)C(=O)O (centres unmarked) [T4 analog 7, 2-[(Tert-butoxycarbonyl)amino]-3-[4-(4-hydroxy-3,5-diiodophenoxy)-3,5-diiodophenyl]propanoic acid]
Branch pts ± SEM ([1]; 0.1 μM, before conjugation): 173 ± 9.9

CCNC(Cc1cc(I)c(Oc2cc(I)c(O)c(I)c2)c(I)c1)C(=O)O (centres unmarked) [T4 analog 11, 2-(Ethylamino)-3-[4-(4-hydroxy-3,5-diiodophenoxy)-3,5-diiodophenyl]propanoic acid]
effect on angiogenesis, representative illustrations (FIG. 23) [1]: proangiogenesis effects

O=C(Cc1cc(I)c(Oc2cc(I)c(OCC3CO3)c(I)c2)c(I)c1)OCC1CO1 (centres unmarked) [Tetrac analog 8, Oxiran-2-ylmethyl-2-(4-(3,5-diiodo-4-(oxiran-2-ylmethoxy)phenoxy)-3,5-diiodophenyl)acetate]
melting point: 116 °C

FGF2: human recombinant FGF2, standard proangiogenic agent
ANGIOGENESIS INDEX ([1]; 1 uM): 155 ± 9 | Branch pts ± SEM ([1]; 1.25 μg/ml): 137.9 ± 7.5 | Mean % of stimulation (comparing to PBS) ([1]; FGF 1.25 μg/mL): 78.1 ± 7.5% | Mean Branch points ([1]; FGF 1.25 μg/mL): 130 ± 11 | increase in angiogenesis / branch formation ([1]; FGF2 (1 μg/mL)): 2.2 fold and 2 fold | Mean Branch points ([1]; FGF (1.25 μg/ml) alone): 130 ± 11 | Hemoglobin (mg/mL) ± SEM ([2]; FGF 100 ng alone): 2.4 ± 0.4 mg/mL

CNC(Cc1cc(I)c(Oc2cc(I)c(O)c(I)c2)c(I)c1)C(=O)[O-].O.O.[K+] (centres unmarked) [T4 analog 10, Potassium 3-[4-(4-hydroxy-3,5-diiodophenoxy)-3,5-diiodophenyl]-2-(methylamino)propanoate dihydrate]
Mean % of stimulation (comparing to PBS) ([1]; 0.1 μM): 43.8 ± 6.5% | Mean Branch points ([1]; 0.1 μM, mean ± SEM, n = 8): 105 ± 7 | Hemoglobin (mg/mL) ± SEM [2, 9]: 0.8 ± 0.2 mg/mL | Mean stimulation of angiogenesis (%) ([2]; 10 μg/matrigel plug, dihydrate): 87% and 87 ± 33%

O=C(O)CCc1cc(I)c(Oc2ccc(O)cc2)c(I)c1 [DITPA, 3,5-diiodothyropropionic acid]
ANGIOGENESIS INDEX ([1]; 0.01 uM): 133.0 ± 11.6 | ANGIOGENESIS INDEX ([1]; 0.1 uM): 167.3 ± 12.7 | ANGIOGENESIS INDEX ([1]; 0.2 mM): 117.9 ± 5.6

CC(C)(C)OC(=O)NC(Cc1cc(I)c(Oc2cc(I)c(OCC3CO3)c(I)c2)c(I)c1)C(=O)OCC1CO1 (centres unmarked) [T4 analog 14, Oxiran-2-ylmethyl-2-(tert-butoxycarbonylamino)-3-(4-(3,5-diiodo-4-(oxiran-2-ylmethoxy)phenoxy)-3,5-diiodophenyl)propanoate]
Mean % of stimulation (comparing to PBS) ([1]; 1 μM): 56.2 ± 7.5% | Mean Branch points ([1]; 1 μM, mean ± SEM, n = 8): 114 ± 11 | Mean stimulation of angiogenesis (%) ([2]; 10 μg/matrigel plug): 0 ± 17% | Hemoglobin (mg/mL) ± SEM [2, 9]: 0.3 ± 0.1 mg/mL

CC(C)(C)OC(=O)NC(Cc1cc(I)c(Oc2cc(I)c(OCC3CO3)c(I)c2)c(I)c1)C(=O)OCC1CO1 (centres unmarked) (hydrate or solvate) [T4 analog 14, Oxiran-2-ylmethyl-2-(tert-butoxycarbonylamino)-3-(4-(3,5-diiodo-4-(oxiran-2-ylmethoxy)phenoxy)-3,5-diiodophenyl)propanoate]
melting point: 105 °C

CC(C)[Si](OC(=O)Cc1cc(I)c(Oc2cc(I)c(O)c(I)c2)c(I)c1)(C(C)C)C(C)C [Tetrac analog 5, Triisopropylsilyl-2-(4-(4-hydroxy-3,5-diiodophenoxy)-3,5-diiodophenyl)acetate]
Mean % Inhibition [1, 7]: 75 ± 19% | Mean Branch points [1, 8]: 87 ± 11 | Mean inhibition of angiogenesis (%) [2, 4]: 104 ± 14% | Hemoglobin (mg/mL) ± SEM [2, 5]: 0.2 ± 0.1 mg/mL | melting point: 146 °C

CCNC(Cc1cc(I)c(Oc2cc(I)c(O)c(I)c2)c(I)c1)C(=O)O (centres unmarked) [PRIAB12]
Branch pts ± SEM ([1]; 0.1 μM): 121.7 ± 13.6

O=C(Cc1cc(I)c(Oc2cc(I)c(O)c(I)c2)c(I)c1)NC1CCCCC1 [Tetrac analog 4, N-cyclohexyl-2-(4-(4-hydroxy-3,5-diiodophenoxy)-3,5-diiodophenyl)acetamide]
Mean % Inhibition [1, 7]: 15 ± 8% | Mean Branch points [1, 8]: 121 ± 4 | Mean inhibition of angiogenesis (%) [2, 4]: 104 ± 12% | Hemoglobin (mg/mL) ± SEM [2, 5]: 0.2 ± 0.1 mg/mL

N[C@@H](Cc1cc(I)c(Oc2ccc(O)c(I)c2)c(I)c1)C(=O)O [Compound T3, 3,5,3′-triiodo-L-thyronine]
generation of new blood vessels from existing vessels promoted ([1]; 10^−7-10^−9M): two-to three-fold | FGF2 (pg/mL/10^6 cells) [3]: 98.8 ± 0.5 pg/mL/10^6 cells
